What was measured:
GSK3β = GSK3β phosphorylation (Ser9) in N2a cells by Western blotting; format: cell-based; settings: 0.8 μM and 1.6 μM, 24 h
Description: N2a cells were treated with 1011 at the indicated concentrations for 24 h. (A) the levels of β-catenin, GSK3β and GSK3β phosphorylation (Ser9) were examined by Western blotting. (B) the intensity of the GSK3β phosphorylation bands were quantified and normalized to the corresponding signal for total GSK3β. The results represented in the histograms are shown as the mean±SD and are the average of 3 independent experiments. *P<0.05, **P<0.01 versus corresponding control value.
Western blotting: Cells in 6-well plates were lysed in 0.5 ml of lysis buffer (phosphate-buffered saline containing 1% Triton X-100, 1× Proteinase inhibitor cocktail Complete, and 1 mM PMSF) at 4° C. for 15 min. Equal quantities of protein were subjected to SDS-PAGE under reducing conditions. Following transfer to immobilon-P transfer membrane, successive incubations with a primary antibody, and a horseradish peroxidase-conjugated secondary antibody or IRDye® 680RD goat anti-rabbit/mouse secondary antibodies were carried out for 60-120 min at room temperature. The immunoreactive proteins were then detected using the ECL system or the Odyssey infrared imaging system (LI-COR). Films showing immunoreactive bands were scanned by Hp Scanjet 5590.

[1] = Pharmacokinetic study in Balb/c mice following intravenous administration; format: in vivo; settings: male Balb/c mice, IV 2 mg/kg
Description: (A) Plasma and brain concentration—time curves of 1015 in male Balb/c mice following intravenous (2 mg/kg) administration (n=4 at each time point). (B) in vivo pharmacokinetic parameters of 1015. B/P: brain/plasma concentration ratio (30 min after IV injection with 2 mg/kg) calculated using 1 g/mL brain density.
Pharmacokinetic study of compound 1015 in Balb/c mice following intravenous administration: Male Balb/c mice (11-12 weeks old, body weight 21.9 to 31.3 g and average body weight across all groups 25.6 g, SD=2.19 g) were used in this study. The animals were randomly assigned to the treatment groups before the pharmacokinetic study; all animals were fasted for 4 h before intravenous injection of 1015 at 2 mg/kg dissolved in Kolliphor HS-physiological saline (20%:80%). Eight time points (5, 15, 30, 60, 120, 240, 480 and 1440 min) were set for this pharmacokinetic study. Each of the time point treatment group included 4 animals. There was also a control group of 2 animals. Mice were injected IV with 2,2,2-tribromoethanol at the dose of 150 mg/kg prior to drawing the blood. Blood collection was performed from the orbital sinus in microtainers containing K2EDTA. Animals were sacrificed by cervical dislocation after blood samples collection. Brain and plasma samples were immediately processed, flash-frozen and stored at −70° C. until subsequent analysis.
Plasma samples (50 μl) were mixed with 200 μl of IS solution. After mixing by pipetting and centrifuging for 4 min at 6000 rpm, 2 μl of each supernatant was injected into LC-MS/MS system. Solution of compound IS-22665-01 (200 ng/ml in acetonitrile-methanol mixture, 1:1, v/v) was used as internal standard (IS) for quantification of 1015 in plasma samples. Brain samples (100 mg±1 mg) were dispersed in 500 μl of IS200(80) using zirconium oxide beads (150 mg±5 mg) in The Bullet Blender® homogenizer for 60 seconds at speed 8. […] Solution of compound IS-22665-01 (200 ng/ml in water-acetonitrile-methanol mixture, 2:4:4, v/v/v) was used as internal standard (IS200(80)) for quantification of 1015 in brain samples. […]

tau = assay: Tau phosphorylation in human iPSC-derived neurons (Western blot AT8/HT7); format: cell-based; settings: 0.4 μM, 48 h
Description: Human iPSC-derived neurons were treated with 1015 (0.4 μM) for 48 h, and the mRNA levels of axin2 (B), neuroD1 (C) and SOX2 (D) were determined by qPCR. All the values are the average of three independent experiments with the SE values indicated by error bars. * P<0.05, ** P<0.01 verse corresponding control. (E) Human iPSC-derived neurons were treated with 1015 (0.4 μM) for 48 h, and the levels of phopspho-tau (p-tau) and total tau were determined by Western blotting with specific antibodies AT8 and HT7, respectively. This experiment is a representative of two such experiments performed with similar data.
NeuroD1, a proneural basic helix-loop-helix (bHLH) transcription factor, plays a critical role in CNS development, and is important for survival of neuronal progenitor cells. There is a TCF/LEF regulatory element in the Neurod1 promoter, and NeuroD1 is a specific target of Wnt/β-catenin signaling. […] In addition, 1015 also induces neural stem cell marker SOX2 expression in human iPSC-derived neurons ([…]). Importantly, 1015 suppresses tau phosphorylation in human iPSC-derived neurons (FIG. 16 at D).

Row | Compound | GSK3β phosphorylation at Ser9 (GSK3β) | concentration in brain versus plasma [1] | half-life (t1/2), brain versus plasma [1] | Kp at 30 min ([1]; mouse, brain/plasma, 30 min after injection, read-out: brain concentration/plasma concentration ratio (B/P)) | tau phosphorylation (tau)
1 | CC1CCCC(C)N1CCNC(=O)c1ccc(C(=O)Nc2ccccc2N)nc1 (centres unmarked) [Compound 1011] | significantly enhanced | – | – | – | –
2 | Nc1ccccc1NC(=O)c1ccc(C(=O)NCC2CCN2C2CCCC2)cn1 (centres unmarked) [Compound 1015] | – | much higher concentration in brain than in plasma | much longer in brain than in plasma | 5.6 | suppresses

Reference: US20220267271A1, “WNT ACTIVATORS AND METHODS OF USE” (MAYO FOUNDATION FOR MEDICAL EDUCATION AND RESEARCH, priority 2019, published 2022)
